# Test results as given in a melting point compilation (Tetko et al.).
row,SMILES,melting point [°C]
1,Cn1c(C=O)nc2ccccc21,119 to 122
2,Cc1cc2n(n1)CC(C(F)(F)F)CN2 (stereo not drawn),194 to 196
3,CC1Cc2cc(S(=O)(=O)Cl)ccc2O1 (stereo not drawn),73 to 75
4,CC(C)C(N)c1nnc2ccccn12 (stereo not drawn),116 to 118
5,C=CS(=O)(=O)c1cccc(Br)c1,50 to 52
6,O=C1COc2c(Cl)cccc2N1,201 to 203
7,CC(=O)c1sc(Cc2ccccc2)nc1C,53 to 55
8,CSc1nnnn1-c1cccc(N)c1,113 to 115
9,COCc1ccccc1CNC(=O)CCl,51 to 53
10,c1ccc2c(c1)NCCS2,34 to 38
11,O=C(CCl)ONc1nc2ccccc2[nH]c1=O,187 to 189
12,CN1NC=C2CN=C(Cl)N=C21,189 to 191
13,ClCc1nnc(-c2ccco2)o1,81 to 83
14,O=C(Nc1ccc(F)cc1F)OCC(F)(F)F,72 to 74
15,COc1ccc(Oc2ccc(C=O)cc2[N+](=O)[O-])cc1,67 to 69
16,Cc1cc(CN2CCNCC2)no1,59 to 71
17,Oc1cc(Br)ccc1C(F)(F)F,89 to 91
18,CCc1c(C(C)O)oc2ccccc12 (stereo not drawn),66 to 68
19,O=C(CCl)NC(=O)NC1CC1,105 to 107
20,NC(=O)c1ccc(N)cc1Cl,163 to 165
21,Nc1ccccc1Cc1nc(-c2ccsc2)no1,118 to 120

row,SMILES,melting point [°C]
1,Oc1cccc(-n2cnnn2)c1,174 to 176
2,CC(C)(C)c1cc(N)n(-c2ccc(F)cc2)n1,98 to 100
3,Nc1ccc([N+](=O)[O-])c(Br)c1,169 to 171
4,Cn1c(S)nnc1Cc1ccccc1,158 to 160
5,OCCCNC(c1ccccc1)c1ccccc1,62 to 64
6,O=Cc1ccc(Oc2ccc([N+](=O)[O-])cc2Cl)c(F)c1,81 to 83
7,O=C1OCc2ccc(S(=O)(=O)Cl)cc21,104 to 106
8,O=Cc1cccc2nccn12,123 to 125
9,COc1c(Cl)cc(Cl)cc1C=O,85 to 87
10,CCOCCNC(=O)c1ccc(Br)cc1,99 to 101
11,NS(=O)(=O)c1ccc2[nH]c(=O)c(=O)[nH]c2c1,372 to 374
12,Nc1nc(Cc2ccccc2)c(-c2ccccc2)s1,139 to 141
13,C#CCn1c2ccccc2c2ccccc21,103 to 105
14,COc1ccc(Cl)cc1NC(=O)CCl,101 to 103
15,CC1(c2ccc([N+](=O)[O-])cc2)NC(=O)NC1=O (stereo not drawn),235 to 237
16,Oc1ccc(Oc2ccccn2)cc1,142 to 144
17,Cc1noc(-c2ccccc2N)n1,120 to 122
18,Cc1cccc(Nc2nnc(S)s2)c1,196 to 198
19,COc1cccc(-c2ccc(CN)cc2)c1,46 to 48
20,Nc1cc(-c2cccc(Cl)c2)nn1CCO,146 to 148
21,Cc1cc(C)n(-c2ccc(S(N)(=O)=O)cc2)n1,243 to 245

row,SMILES,melting point [°C]
1,O=C(Cc1nc2ccccc2[nH]1)NCc1ccccn1,176 to 178
2,CCCCOc1ccc(-c2nnc(CCl)o2)cc1,77 to 79
3,O=S(=O)(Cl)c1ccc(F)c2ncccc12,104 to 106
4,Cc1cc(S(=O)(=O)Cl)c(C)cc1Br,54 to 56
5,Cc1cc(C=O)cnc1Cl,47 to 49
6,Nc1ccncc1F,71 to 79
7,CCCC1(c2ccccc2)NC(=O)NC1=O (stereo not drawn),172 to 174
8,CC(C)(C)n1[nH]c(-c2ccccc2)cc1=N,103 to 105
9,N#Cc1cccnc1NCc1ccccc1Cl,111 to 113
10,Cc1cc(Cl)n(-c2ccc(C#N)cc2)n1,103 to 105
11,ICc1cccc2cccnc12,79 to 81
12,Cc1nc(-c2ccc(Br)cc2)n[nH]1,190 to 192
13,CN(C)c1cccc(C(=O)NN)c1,99 to 101
14,Nc1ccc2[nH]c(CCN3CCOCC3)nc2c1,201 to 203
15,Cc1[nH]c(=O)[nH]c(=O)c1CO,326 to 328
16,NC(=O)c1ccn(-c2ccc(N)cc2)n1,230 to 232
17,COc1ccc(-c2nc(C)c(C(C)=O)s2)cc1,92 to 94
18,Cc1cc(C)n2nc(O)cc2n1,241 to 243
19,COc1ccc(N2C(=O)CC(=O)NC2=S)cc1,241 to 243
20,O=[N+]([O-])c1sc(Cl)nc1Cl,38 to 40
21,CC(C)(C)OC(=O)Nc1cc(N)c(F)cc1F,117 to 119

# The remaining lines, values ahead:
row,melting point [°C],SMILES
1,93 to 95,CC(C)(C)OC(=O)NCC1CCCCN1 (stereo not drawn)
2,173 to 175,COC(=O)c1nc2n(n1)CCCN2
3,163 to 165,Cc1c(C(N)=O)cccc1[N+](=O)[O-]
4,78 to 80,CCCCS(=O)(=O)N1CCCCC1C(=O)O (stereo not drawn)
5,84 to 86,CN(C)S(=O)(=O)c1ccc(Cl)c(C(=O)NCCCCCC(=O)O)c1
6,54 to 56,CC1CCCCN1Cc1ccc(N)cc1 (stereo not drawn)
7,61 to 63,O=C(O)C=C1CCCC1
8,173 to 175,CCCCOc1ccc2cc(C(=O)O)[nH]c2c1
9,242 to 244,O=C(O)c1ccc(NS(=O)(=O)c2ccc(Cl)c([N+](=O)[O-])c2)cc1O
10,133 to 137,CCOc1ccc(N2CC(C(=O)O)CC2=O)cc1 (stereo not drawn)
11,132 to 134,O=Cc1ccc(OCCC(=O)O)cc1
12,89 to 91,O=Cc1sc(N2CCCCC2)nc1Cl
13,89 to 91,CCn1nc(C(F)(F)F)c(C(=O)O)c1C(F)(F)F
14,207 to 209,Cc1cccc(C)c1Nc1nnc(SCC(=O)O)s1
15,191 to 193,NNC(=O)c1cccc(S(=O)(=O)Nc2ccc(Cl)cc2)c1
16,205 to 207,CN(C)c1nc2sc(C(=O)O)cc2s1
17,296 to 298,Cc1[nH]c(=O)c(C(=O)O)cc1-c1ccc(O)cc1
18,72 to 74,O=S1(=O)CC(SCc2ccccc2)c2ccccc21 (stereo not drawn)
19,127 to 129,O=C(CCl)c1ccc(N2CCCC2=O)cc1
20,82 to 84,NCc1ccccc1-c1ccc(CN2CCCC2=O)cc1
21,101 to 103,CSCCC(NC(=O)Cc1ccccc1)C(=O)O (stereo not drawn)
22,219 to 221,COc1cc(OC)cc(C(=O)Nc2ccc(C(=O)O)c(O)c2)c1
23,168 to 170,O=C(O)c1ccc(OCc2ccccc2)nc1
24,43 to 45,CC(C)NC(=O)CN1CCCNCC1
25,176 to 178,O=C(O)Cn1nc(-c2cccs2)oc1=O
26,49 to 51,Cc1cc(C)cc(CCC(=O)O)c1
27,176 to 178,O=C(O)c1c2c(nc3ccccc13)C(=Cc1cccs1)CCC2

row,melting point [°C],SMILES
1,70 to 72,CCOC(=O)CNCC(N)=O
2,113 to 115,NC(C(=O)O)(c1ccccc1F)C(F)(F)F (stereo not drawn)
3,108 to 110,Cc1ccccc1SCC(=O)O
4,80 to 84,COC(=O)C(=O)CC(=O)c1ccccc1OC
5,85 to 87,CCOC(=O)CC(C)(O)c1cccc(O)c1 (stereo not drawn)
6,76 to 78,N#CC1COCCN1 (stereo not drawn)
7,139 to 141,O=C1NCCNC1c1ccccc1 (stereo not drawn)
8,131 to 133,CCN(CC)S(=O)(=O)c1ccc2c(c1)CCCN2
9,184 to 186,COc1ccc(Nc2ccccc2C(=O)O)cc1
10,110 to 120,CCOC(=O)c1cnc(SC)nc1N
11,127 to 129,CC(C)(C)c1ccc(C(O)CCC(=O)O)cc1 (stereo not drawn)
12,107 to 108,Sc1nnc(-c2cccs2)n1CC1CCCO1 (stereo not drawn)
13,208 to 210,CC(O)CNS(=O)(=O)c1ccc(C(=O)O)cc1 (stereo not drawn)
14,246 to 248,Cc1cc(C)nc(-n2[nH]c(C(=O)O)cc2=O)n1
15,150 to 152,O=C1CCC(=O)N1c1ncc(Br)s1
16,152 to 154,NNC(=O)CN1C(=O)COc2ccccc21
17,199 to 201,Cc1nc2sc3c(c2c(=O)n1N)CCCCC3
18,113 to 115,CC(C)(C)OC(=O)NC(C(=O)O)c1ccccc1 (stereo not drawn)
19,209 to 211,O=C(O)c1cccc(S(=O)(=O)NC2CCCC2)c1
20,203 to 205,COc1cc(C(=O)O)cc2c1OCCO2
21,198 to 200,O=C(O)c1cc([N+](=O)[O-])c[nH]1
22,245 to 247,Cc1nn(Cc2ccc(Cl)cc2)c2sc(C(=O)O)cc12
23,126 to 128,COC(C)c1nc(C)c(C(=O)O)s1 (stereo not drawn)
24,87 to 89,O=C(O)CCCOc1ccccc1Br
25,207 to 209,CC(C)(C)c1noc2ncc(C(=O)O)cc12
26,121 to 123,CC1c2ccccc2OC1C(=O)O (stereo not drawn)
27,53 to 55,COC(=O)Cn1cnc(C#N)n1

row,melting point [°C],SMILES
1,280 to 282,NNC(=O)c1cc([N+](=O)[O-])c[nH]1
2,73 to 75,CC1CN(c2ccc(N)cc2)CC(C)O1 (stereo not drawn)
3,121 to 123,O=C(O)C1CCCCN1C(=O)C1CCCC1 (stereo not drawn)
4,98 to 100,O=C(O)CNC(=O)c1cccc(Cl)c1
5,139 to 141,Clc1ccc2nnc(C3CCCO3)n2n1 (stereo not drawn)
6,260 to 262,Cc1nnc(S)n1CC(=O)N(C)C
7,74 to 76,Cc1cccc(CSCC(=O)O)c1
8,120 to 122,C#Cc1cccc(NC(=O)CCl)c1
9,95 to 97,Cc1noc(C)c1C(C)CC(=O)O (stereo not drawn)
10,130 to 132,Cc1ccc(SC(C(=O)O)c2ccccc2)c(C)c1 (stereo not drawn)
11,188 to 190,CC(=O)Nc1cc(C(=O)CCl)ccc1O
12,170 to 175,Cn1nc(C(=O)O)ccc1=O
13,118 to 122,CCOC(=O)c1c(N)sc(C(=O)N(C)C)c1C
14,91 to 93,NS(=O)(=O)C1CCCCC1
15,105 to 108,Cc1cc(C(=O)CCC(=O)O)c(C)s1
16,174 to 176,O=C(O)Cc1ccc(NS(=O)(=O)c2ccc(Cl)c(Cl)c2)cc1
17,185 to 187,NNc1ccc(S(=O)(=O)N2CCC(Cc3ccccc3)CC2)cn1
18,266 to 268,CC1CCc2c(sc3nc(CC#N)[nH]c(=O)c23)C1 (stereo not drawn)
19,113 to 115,O=C(O)CCC(=O)c1ccc(F)cc1F
20,30 to 32,O=C(NCCCCl)OCc1ccccc1
21,228 to 230,O=C1COc2ccc(C(=O)/C=C/c3ccccc3)cc2N1
22,231 to 233,O=C(O)c1cccc(S(=O)(=O)NCc2cccnc2)c1
23,43 to 45,O=C(c1cccnc1)C1CCOCC1
24,215 to 217,Cc1cc(=O)c(C(=O)O)nn1-c1ccccc1Cl
25,153 to 155,O=C(O)CCCNC(=O)NC1CCCCC1
26,288 to 290,O=C(O)c1ccc(Cl)c(N2CCCC2=O)c1
